Data: patent US9193762B2, “Selective inhibitors of prolylcarboxypeptidase” (UNIVERSITY OF MISSISSIPPI, priority 2010, dated 2015)
“Also recorded” adds a separate entry of the source. One block for each molecule: values may come before it. Where a SMILES comes first, the peptide text is derived from it. The star is where a group is joined. Cbz = O=C(OCc1ccccc1)*

Key:
[1] = target: carboxypeptidase B [CPB, EC 3.4.17.2] (Sus scrofa, UniProt P09955); experiment: carboxypeptidase B inhibition; format: biochemical
[2] = target: CPN (hCPN, partially purified from plasma) (Homo sapiens (Human), UniProt P15169); experiment: carboxypeptidase CPN, metabolism of hippuryl-lysine; format: biochemical
Source text: While BK exerts its vasodilatory effect through the bradykinin B2 receptors (BKB2R), des-Arg9-BK (a substrate of PRCP) mediates its effect via the selective bradykinin B1 receptors (BKB1R). […] Carboxypeptidase A (CPA) is a highly conserved protease, which is present in pancreas and the secretory granules of mast cells. Although its substrate selectivity is different than that of PRCP, both CPA and PRCP can cleave the C-terminal aromatic or aliphatic amino acids of proteins or peptides. […] All values were calculated as percentage of positive control after subtraction of background. […] Commercially available pooled normal human serum was used. The tubes were tightly covered, vortexed for 15 seconds and incubated for 60 min at 37° C. in a shaker water bath. The enzymatic reaction was stopped by addition of 250 μL of 1 M HCl solution and vortexed for 15 seconds. The blanks were stopped immediately after the addition of serum by 250 μL of 1M HCl before incubation. All samples were incubated on ice for 5 min. 1500 μL ethyl acetate was added, vortexed for 30 s and centrifuged for 10 min at 4000 g. 1 mL of the upper layer (ethyl acetate) was transferred into a 5 mL test tube and placed in a boiling water bath for 45-60 min to evaporate the ethyl acetate thoroughly, 3 mL of 1M NaCl solution was added to each tube and vortexed for 30 s. All samples were placed in water bath at 70° C. for 5 min to redissolve all the residual hippuric acid, then vortexed for 30 s. After 15 min of incubation at room temperature, the absorbance of hippuric acid was read at λ=228 nm.
The reaction mixture was incubated at 37° C. for 1 h. The reaction was stopped by the addition of 0.5 M HCl.

CPM = CPM (Homo sapiens (Human), UniProt P14384); experiment: carboxypeptidase CPM, metabolism of hippuryl-lysine; format: biochemical
[3] = target: carboxypeptidase A [CPA, EC 3.4.17.1] (Bos taurus, UniProt P00730); experiment: carboxypeptidase A inhibition; format: biochemical
Source text: While BK exerts its vasodilatory effect through the bradykinin B2 receptors (BKB2R), des-Arg9-BK (a substrate of PRCP) mediates its effect via the selective bradykinin B1 receptors (BKB1R). […] Carboxypeptidase A (CPA) is a highly conserved protease, which is present in pancreas and the secretory granules of mast cells. Although its substrate selectivity is different than that of PRCP, both CPA and PRCP can cleave the C-terminal aromatic or aliphatic amino acids of proteins or peptides. […] The reaction mixture was incubated at 37° C. for 1 h. The reaction was stopped by the addition of 0.5 M HCl.

factor XIa (FXIa) = factor XIa (FXIa) (Homo sapiens (Human), UniProt P03951); experiment: specificity: serine protease FXIa; format: biochemical
food intake of mice = experiment: food intake in fasted mice after i.p. injection; format: in vivo
Experimental: Mice were single housed one week before the experiment. Male mice (n=6 per group; 4 months old) were then food deprived for 24 hours. […] Food intake was measured at 1 hour, 2 hours, 4 hours 8 hours and 24 hours.

[4] = toxicity: 14 metabolic markers in mice; format: in vivo
Source text: The blood glucose level was decreased in drug-treated mice (n=3) by 15%.

factor XIIa (FXIIa) = factor XIIa (FXIIa) (Homo sapiens (Human), UniProt P00748); experiment: specificity: serine protease FXIIa; format: biochemical
[5] = test system: carotid artery thrombosis in wild type C57BL/6 mice; experiment: FeCl3 carotid artery thrombosis model, wild type mice; conditions: 10 mg/kg IV, 3.5% FeCl3, vs PBS
Experimental: (§1) C57Bl/6 WT mice and C57Bl/6 mice deficient in factor fXII (FXII^−/−), were used in these studies. The procedures were approved by the Institutional Animal Care and Use Committee of Vanderbilt University. After anesthesia with pentobarbital (50 mg/kg IP), the right common carotid artery was exposed and fitted with a Doppler flow probe (Model 0.5 VB, Transonic System, Ithaca, N.Y.). […] Flow was monitored for 30 min. Mice were sacrificed by pentobarbital overdose after conclusion of the experiment, while under anesthesia.

[6] = test system: carotid artery thrombosis in FXII−/− mice; experiment: FeCl3 carotid artery thrombosis model, FXII-deficient mice
Experimental: as §1

α-kallikrein = α-kallikrein (Homo sapiens (Human), UniProt P03952); experiment: specificity: serine protease α-kallikrein; format: biochemical
HPAEC permeability = experiment: in vitro vascular permeability assay, HPAEC monolayer with HK/PK complex; format: cell-based, human
Experimental: The effect of the inhibitors of PRCP on vascular permeability was assessed using an in vitro vascular permeability assay kit (Chemicon/Millipore, Mass.) according to the manufacturer's protocol. Briefly, collagen coating solution in 0.2×PBS, pH 7.1 was added to the inserts. After incubating for 1 h at room temperature, the inserts were hydrated with cell growth medium for 15 min and seeded with 200 μL of cell suspension (1.0×10^6 HPAEC/mL). The plate was incubated at 37° C. for 24 h until a cell monolayer was formed. The inserts were then treated with cell basal medium (negative control); 1 μg/mL LPS (positive control); 0.1 μM HK/PK complex in the absence or presence of HOE-140 (1 μM) and lisinopril (1 μM, […]) and incubated at 37° C. for 18 h. […] The fluorescence was read at an excitation wavelength of 485 nm and an emission wavelength of 528 nm using BioTek Synergy 2 Multi-Mode Microplate Reader.

[7] = test system: PRCP-dependent PK activation on human pulmonary artery endothelial cells (HPAEC)
Experimental: Applicants utilized two assays to evaluate the putative PRCP inhibitors; 1.) a chromogenic enzyme assay, that involved the continual monitoring [60 min] for the production of p-nitroaniline derived from rPRCP-catalyzed conversion of Ala-Pro-p-nitroaniline (APpNA) in the presence of inhibitor and; 2.) a cell-based assay measuring the PRCP-dependent PK activation on human pulmonary artery endothelial cells (HPAEC). […] Human pulmonary artery endothelial cells (HPAEC) were purchased from Invitrogen (Carlsbad, Calif.) and were cultured as previously described.^20 The cells were grown in Dulbecco's Modified Eagle's Medium (DMEM) overnight in 96 well plates (Costar). […] Gelatin blocking buffer (1% Gelatin) was prepared by adding appropriate amount of 5% gelatin stock to HEPES-carbonated buffer as described above. In the first step, gelatin blocking buffer was used to reduce the non specific binding. As part of this step, the cells were incubated with 1% gelatin buffer for 1 hour.

[8] = target: recombinant prolylcarboxypeptidase (rPRCP) (Homo sapiens (Human), UniProt P42785); experiment: chromogenic enzyme assay of rPRCP with Ala-Pro-p-nitroaniline (APpNA); format: biochemical
Experimental: Applicants utilized two assays to evaluate the putative PRCP inhibitors; 1.) a chromogenic enzyme assay, that involved the continual monitoring [60 min] for the production of p-nitroaniline derived from rPRCP-catalyzed conversion of Ala-Pro-p-nitroaniline (APpNA) in the presence of inhibitor and; 2.) a cell-based assay measuring the PRCP-dependent PK activation on human pulmonary artery endothelial cells (HPAEC). […] The effects of the inhibitors of PRCP were determined using a previously published method^31. Briefly, rPRCP was incubated in the presence or absence of various PRCP inhibitors in HEPES-carbonated buffer containing 1 mM Ala-Pro-paranitroaniline (APpNA, a PRCP chromogenic substrate). The final volume was 100 μL and the time of incubation was 60 min. […] Generation of free p-nitroaniline from APpNA was determined by monitoring changes in absorbance at 405 nm. Assays were done a minimum of 3 times.

trypsin = experiment: specificity: serine protease trypsin; format: biochemical
[9] = failed to inhibit at these concentrations

Chain of CPM (P14384 18-443, species assumed): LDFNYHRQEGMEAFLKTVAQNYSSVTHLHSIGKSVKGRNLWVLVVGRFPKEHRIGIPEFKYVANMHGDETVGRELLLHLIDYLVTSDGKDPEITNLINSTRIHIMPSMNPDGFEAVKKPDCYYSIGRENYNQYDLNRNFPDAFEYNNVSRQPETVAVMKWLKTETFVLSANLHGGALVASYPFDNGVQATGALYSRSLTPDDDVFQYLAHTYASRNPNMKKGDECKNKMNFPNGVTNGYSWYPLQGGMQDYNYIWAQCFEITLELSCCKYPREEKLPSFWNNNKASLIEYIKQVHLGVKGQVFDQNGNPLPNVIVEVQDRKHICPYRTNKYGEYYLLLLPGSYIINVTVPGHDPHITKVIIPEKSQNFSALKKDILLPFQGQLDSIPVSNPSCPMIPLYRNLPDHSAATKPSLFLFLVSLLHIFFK
Chain of factor XIIa (FXIIa) (P00748 373-615): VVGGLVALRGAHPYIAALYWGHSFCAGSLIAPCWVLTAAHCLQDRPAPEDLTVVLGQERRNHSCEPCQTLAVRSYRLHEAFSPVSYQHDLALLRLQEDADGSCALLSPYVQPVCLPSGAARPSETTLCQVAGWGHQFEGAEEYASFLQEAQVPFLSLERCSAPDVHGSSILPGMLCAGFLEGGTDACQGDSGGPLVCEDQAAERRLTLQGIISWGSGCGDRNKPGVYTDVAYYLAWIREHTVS
Chain of CPN (hCPN, partially purified from plasma) (P15169 21-458): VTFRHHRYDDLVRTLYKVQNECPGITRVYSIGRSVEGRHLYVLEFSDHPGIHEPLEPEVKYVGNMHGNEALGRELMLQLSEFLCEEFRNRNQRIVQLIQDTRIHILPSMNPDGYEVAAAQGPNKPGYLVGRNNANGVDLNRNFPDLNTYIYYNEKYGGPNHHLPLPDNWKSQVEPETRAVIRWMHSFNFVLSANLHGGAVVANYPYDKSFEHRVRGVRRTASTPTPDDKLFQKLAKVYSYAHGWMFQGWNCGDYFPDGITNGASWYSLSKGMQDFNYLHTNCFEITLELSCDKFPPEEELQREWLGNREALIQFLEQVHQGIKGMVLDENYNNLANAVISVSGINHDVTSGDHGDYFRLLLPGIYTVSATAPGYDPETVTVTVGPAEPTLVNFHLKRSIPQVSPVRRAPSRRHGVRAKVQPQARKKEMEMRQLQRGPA
Chain of CPN (hCPN, partially purified from plasma) (P22792 22-545 partner): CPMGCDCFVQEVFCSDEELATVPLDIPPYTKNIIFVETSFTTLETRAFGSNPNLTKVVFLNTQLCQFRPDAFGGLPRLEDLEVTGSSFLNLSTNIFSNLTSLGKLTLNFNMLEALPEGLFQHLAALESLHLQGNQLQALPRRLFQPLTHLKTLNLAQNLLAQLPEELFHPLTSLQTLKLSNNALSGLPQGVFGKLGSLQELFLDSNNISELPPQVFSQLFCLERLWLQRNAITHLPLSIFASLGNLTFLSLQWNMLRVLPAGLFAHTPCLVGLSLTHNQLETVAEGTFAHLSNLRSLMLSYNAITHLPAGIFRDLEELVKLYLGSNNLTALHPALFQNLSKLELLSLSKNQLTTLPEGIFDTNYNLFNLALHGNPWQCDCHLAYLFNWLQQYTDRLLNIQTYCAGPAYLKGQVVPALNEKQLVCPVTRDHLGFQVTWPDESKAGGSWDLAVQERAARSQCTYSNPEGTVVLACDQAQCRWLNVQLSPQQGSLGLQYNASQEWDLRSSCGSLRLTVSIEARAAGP
Chain of recombinant prolylcarboxypeptidase (rPRCP) (P42785 46-496): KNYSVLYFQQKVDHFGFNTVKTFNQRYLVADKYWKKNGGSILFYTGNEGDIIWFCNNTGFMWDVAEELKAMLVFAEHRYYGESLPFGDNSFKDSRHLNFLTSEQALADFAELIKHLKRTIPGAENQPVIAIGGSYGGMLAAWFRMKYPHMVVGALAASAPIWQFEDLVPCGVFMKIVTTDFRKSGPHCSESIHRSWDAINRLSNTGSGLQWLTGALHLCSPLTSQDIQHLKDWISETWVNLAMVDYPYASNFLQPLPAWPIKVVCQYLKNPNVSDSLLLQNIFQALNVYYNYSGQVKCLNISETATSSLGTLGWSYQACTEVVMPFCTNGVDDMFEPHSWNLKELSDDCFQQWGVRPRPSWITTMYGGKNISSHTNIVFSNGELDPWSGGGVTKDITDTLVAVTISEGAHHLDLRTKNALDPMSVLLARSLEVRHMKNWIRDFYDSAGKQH
Chain of carboxypeptidase A [CPA, EC 3.4.17.1] (P00730 111-419 limits assumed): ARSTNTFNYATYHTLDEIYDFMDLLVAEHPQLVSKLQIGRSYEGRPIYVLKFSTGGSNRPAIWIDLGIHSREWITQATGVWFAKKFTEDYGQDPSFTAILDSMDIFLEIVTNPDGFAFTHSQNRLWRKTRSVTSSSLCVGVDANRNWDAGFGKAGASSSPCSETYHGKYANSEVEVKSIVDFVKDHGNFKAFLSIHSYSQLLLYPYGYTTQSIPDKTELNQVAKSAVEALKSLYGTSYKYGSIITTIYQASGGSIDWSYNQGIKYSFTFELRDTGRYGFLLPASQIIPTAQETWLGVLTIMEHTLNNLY
Chain of α-kallikrein (P03952 391-638): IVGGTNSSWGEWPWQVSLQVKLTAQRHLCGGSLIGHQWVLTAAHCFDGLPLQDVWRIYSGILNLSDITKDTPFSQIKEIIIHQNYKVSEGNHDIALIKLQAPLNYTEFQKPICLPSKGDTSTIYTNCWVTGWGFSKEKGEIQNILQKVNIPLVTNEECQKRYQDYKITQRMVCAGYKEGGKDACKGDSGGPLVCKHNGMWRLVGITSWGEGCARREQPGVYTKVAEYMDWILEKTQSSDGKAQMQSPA
Chain of α-kallikrein (P03952 20-390 partner): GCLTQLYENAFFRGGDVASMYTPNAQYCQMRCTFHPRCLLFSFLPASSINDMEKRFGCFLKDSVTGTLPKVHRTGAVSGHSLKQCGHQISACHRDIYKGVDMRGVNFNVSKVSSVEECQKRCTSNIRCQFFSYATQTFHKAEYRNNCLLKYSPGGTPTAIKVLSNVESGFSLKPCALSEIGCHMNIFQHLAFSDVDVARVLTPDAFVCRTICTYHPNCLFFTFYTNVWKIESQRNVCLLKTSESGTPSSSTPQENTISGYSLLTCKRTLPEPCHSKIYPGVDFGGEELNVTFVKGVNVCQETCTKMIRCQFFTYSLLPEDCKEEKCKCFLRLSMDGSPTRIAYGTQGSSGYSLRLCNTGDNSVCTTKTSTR
Chain of factor XIa (FXIa) (P03951 388-625): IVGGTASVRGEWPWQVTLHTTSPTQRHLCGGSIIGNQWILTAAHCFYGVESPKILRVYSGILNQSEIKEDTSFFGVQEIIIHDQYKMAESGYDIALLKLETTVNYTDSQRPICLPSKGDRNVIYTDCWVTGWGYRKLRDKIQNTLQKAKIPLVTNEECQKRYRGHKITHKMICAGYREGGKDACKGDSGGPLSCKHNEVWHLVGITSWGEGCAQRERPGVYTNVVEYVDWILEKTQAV
Chain of factor XIa (FXIa) (P03951 19-387 partner): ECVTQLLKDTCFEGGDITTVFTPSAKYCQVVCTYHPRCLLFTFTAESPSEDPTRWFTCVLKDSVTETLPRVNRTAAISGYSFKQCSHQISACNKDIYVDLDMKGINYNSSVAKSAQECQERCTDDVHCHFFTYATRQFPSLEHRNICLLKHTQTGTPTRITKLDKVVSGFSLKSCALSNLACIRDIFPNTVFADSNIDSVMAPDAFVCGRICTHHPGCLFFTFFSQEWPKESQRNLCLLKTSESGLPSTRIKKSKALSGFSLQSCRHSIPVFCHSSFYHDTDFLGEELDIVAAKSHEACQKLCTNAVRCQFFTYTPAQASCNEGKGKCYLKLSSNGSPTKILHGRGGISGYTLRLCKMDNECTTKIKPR
Chain of carboxypeptidase B [CPB, EC 3.4.17.2] (P09955 111-416 limits assumed): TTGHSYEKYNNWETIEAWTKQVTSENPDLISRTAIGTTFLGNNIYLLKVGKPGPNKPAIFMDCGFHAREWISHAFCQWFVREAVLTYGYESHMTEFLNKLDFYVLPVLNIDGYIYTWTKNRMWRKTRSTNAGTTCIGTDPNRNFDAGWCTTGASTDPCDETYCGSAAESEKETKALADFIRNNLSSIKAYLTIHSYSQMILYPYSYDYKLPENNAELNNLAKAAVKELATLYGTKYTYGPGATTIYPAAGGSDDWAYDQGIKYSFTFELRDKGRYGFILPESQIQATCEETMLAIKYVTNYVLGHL

Ki, CPB [1]: 738.5 ηM
IC50 [2]: 1000 µM
Ki [2]: 615 µM
IC50 (CPM): 640 µM
Ki (CPM): 394 µM
Ki, CPA [3]: 486 ηM
Molecule: c1cnc2c(c1)ccc1cccnc12 [1,10-phenanthroline]

Molecule: CCCCCCCCCCCCNC(=O)[C@@H]1CCCN1C(=O)[C@@H]1CCCN1.Cl [RS-33-21, (S)—N-dodecyl-1-((S)-pyrrolidine-2-carbonyl)pyrrolidine-2-carboxamide hydrochloride]
concentration at which FXIa was not inhibited (factor XIa (FXIa); [9]): > 1.0 mM
time to start of attenuation of food intake (food intake of mice; i.p.): ≤ 1 h
food intake at 1 mg/kg (food intake of mice; i.p. 1 mg/kg): lower food intake, although the reduction was not significant at 2, 4, 8, or 24 h
food intake at 10 mg/kg (food intake of mice; i.p. 10 mg/kg, all time intervals): Significant declines in food intake
food intake, dose and time dependence (food intake of mice; i.p., 1, 10 or 100 mg/kg, hydrochloride): induced appetite loss that was dose- and time-dependent; also recorded: inhibited food intake; also recorded: reduced food-intake in mice in a dose- and time-dependent fashion; also recorded: reduced food intake in mice in a dose-dependent and time-dependent manner
food intake at 100 mg/kg (food intake of mice; single i.p. injection 100 mg/kg, 1-24 h, hydrochloride): Significant declines in food intake; also recorded: reduced food intake
decrease in blood glucose level ([4]; drug-treated mice, n=3): 15%
glucose levels compared with control mice (in words) ([4]; mice, Table 16): relatively low but not statistically significant
increase in blood amylase compared to sham animals ([4]; mice, n=3): 20%
change in electrolyte levels, body water, markers of kidneys and liver ([4]; mice, within 8 h): failed to cause any significant change
inhibition of CPB (in words) [1]: not inhibited
concentration at which FXIIa was not inhibited (factor XIIa (FXIIa); [9]): > 1.0 mM
vessel occlusion [5]: did not prevent vessel occlusion
time to arterial occlusion ([5]; hydrochloride): nor prolong the time to arterial occlusion; also recorded: did not observe shortening of carotid artery occlusion times
inhibition of CPN (in words) ([2]; metabolism of hippuryl-lysine): did not inhibit
inhibition of CPM (in words) (CPM; metabolism of hippuryl-lysine): did not inhibit
inhibition of CPA (in words) [3]: not inhibited
antithrombotic effect (in words) ([6]; FXII deficient mice): evidence for an antithrombotic effect
mice that did not develop occlusion ([6]; FXII−/− mice, 10 mg/kg IV, 12.5% FeCl3): 4 of 6
concentration at which kallikrein was not inhibited (α-kallikrein; [9]): > 1.0 mM
reduction of cell permeability (HPAEC permeability; 100 μM, in the presence of HK/PK (0.1 μM each)): 90%
BK-induced permeability blocked (HPAEC permeability; concentration not given): 100%

Molecule: CCOCCOCCOCCCNC(=O)[C@@H]1CCCN1C(=O)[C@@H]1CCCN1C(=O)OCc1ccccc1 [RS-33-22, (S)-benzyl-2-((S)-2-((3-(2-(2-ethoxyethoxy)ethoxy)propyl)carbamoyl)pyrrolidine-1-carbonyl) pyrrolidine-1-carboxylate]
blocking of PK activation on HPAEC (in words) [7]: ineffective
rPRCP inhibition (in words) [8]: ineffective

Molecule: O=C[C@@H]1CCCN1C(=O)[C@@H]1CCCN1C(=O)OCc1ccccc1 [Z-Pro-Pro-OH, 1-[1-(benzyloxycarbonyl)-L-prolyl]prolinal, reference compound] (Cbz-Pro-Pro-aldehyde)
blocking of PK activation on HPAEC (in words) [7]: a little effect
rPRCP inhibition (in words) [8]: a little effect

IC50 (factor XIIa (FXIIa)): 0.2 µM
Ki (factor XIIa (FXIIa)): 0.12 µM
Molecule: corn trypsin inhibitor

IC50 (factor XIa (FXIa)): 1 µM
IC50 (trypsin): 0.2 µM
IC50 (α-kallikrein): 10 µM
B1: soybean trypsin inhibitor: soybean trypsin inhibitor (SBTI), comparison inhibitor of kallikrein, FXIa and trypsin (protein, UniProt P01070 25-205, looked up)
Trypsin inhibitor A: DFVLDNEGNPLENGGTYYILSDITAFGGIRAAPTGNERCPLTVVQSRNELDKGIGTIISSPYRIRFIAEGHPLSLKFDSFAVIMLCVGIPTEWSVVEDLPEGPAVKIGENKDAMDGWFRLERVSDDEFNNYKLVFCPQQAEDDKCGDIGISIDHDDGTRRLVVSKNKPLVVQFQKLDKESL
